Data published in US5032614A, “Serotonin antagonist” (Mitsubishi Kasei Corporation, priority 1989, dated 1991).
pIC50, pKi: −log10 of the molar value.

Legend:
[1] = molecular target: T1, serotonin receptor (3H-Ketanserin binding, cerebral cortex nucleus-microsome-containing fraction) (Rattus norvegicus, UniProt P14842); test: Receptor-binding test (3H-Ketanserin tracer, rat cerebral cortex receptor fraction); details: 3H-Ketanserin 1 nM, Wistar rat cerebral cortex receptor, 37° C. 30 min; read-out: IC50 (50% inhibition of specific binding of the tracer to the receptor)
T1 construct: the resultant nucleus-microsome-containing fraction (=receptor) was stored at -80° C; from tissue; host or cells: Wistar rat (male) cerebral cortex, nucleus-microsome-containing fraction
T1 sequence (P14842 whole entry): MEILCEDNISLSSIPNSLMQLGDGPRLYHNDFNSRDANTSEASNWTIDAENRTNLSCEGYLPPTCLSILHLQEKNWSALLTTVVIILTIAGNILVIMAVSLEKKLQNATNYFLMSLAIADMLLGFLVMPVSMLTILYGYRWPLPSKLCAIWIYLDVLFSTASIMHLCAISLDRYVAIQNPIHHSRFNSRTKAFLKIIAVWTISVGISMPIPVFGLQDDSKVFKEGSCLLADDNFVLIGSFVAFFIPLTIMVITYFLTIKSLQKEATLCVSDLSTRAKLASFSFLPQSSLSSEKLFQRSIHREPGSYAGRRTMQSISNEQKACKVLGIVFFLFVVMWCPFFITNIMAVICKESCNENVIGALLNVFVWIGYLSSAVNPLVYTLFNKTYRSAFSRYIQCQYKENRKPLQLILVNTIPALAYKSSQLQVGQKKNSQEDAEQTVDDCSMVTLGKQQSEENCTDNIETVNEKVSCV
Protocol: (1) Receptor-binding Test
(a) Preparation of Receptor
Wistar strain male rats (300-500 g) were killed by decapitation. Cerebral cortex was removed, homogenized in 50 mM Tris-HCl buffer, pH 7.4, and centrifuged at 50,000×g for 20 min at 4° C. After washing precipitates with the same buffer, the resultant nucleus-microsome-containing fraction (=receptor) was stored at -80° C. until use.
The receptor obtained above (0.5 ml, equivalent to 5 mg of tissue) was incubated at 37° C. for 30 min in 0.4 ml of the above-mentioned buffer containing 0.1 ml of ^3 H-Ketanserin tracer (77 Ci/mmol; a final concentration of 1 nM) in the final volume of 1.0 ml. The reaction mixture was filtered under vacuum through a GF/B glass filter (Whatman). After washing the filter with the buffer, radio activity bound to filter was measured by a liquid scintilation spectrophotometer (Aloka, LSC-900) to obtain the total binding activity of the tracer.
Non-specific binding activity of the tracer, i.e., the binding activity of the tracer to materials other than the receptor, was evaluated using the same assay system except for that serotonin was added to the reaction mixture to the final concentration of 1 mM in order to block the binding of the tracer to the receptor. The specific binding activity of the tracer to the receptor was determined by subtracting the non-specific binding activity from the total binding activity.
(c) IC50 (concentration of a test compound requisite for producing a 50% inhibition)
Concentration (ng/ml) of compounds of the invention (serotonin antagonist) which produces a 50% inhibition of specific binding of the tracer to the receptor was determined as follows.
The assay system and procedure as described in (b) were employed except for that amitriphtyline hydrochloride as a control or a compound of the invention was added to the assay system with various concentrations of from 10^-1 to 10^-5 ng/ml. The specific binding activity was determined at each concentration, and a dose-response curve was prepared. A concentration of the compound in ng/ml required for producing 50% inhibition of specific binding of the tracer to the receptor (IC50) was determined on the basis of the dose-response curve.

[2] = molecular target: T2, serotonin-induced constriction of caudal artery (Rattus norvegicus, UniProt P14842); test: Inhibition test against serotonin-induced constriction of caudal artery in rats; type: cell-based; details: Wistar rat caudal artery spiral strip, from shift of serotonin ED50; read-out: Ki (inhibition constant against serotonin-induced constriction)
T2 construct: Caudal artery was removed and spiral strip was prepared; from tissue; host or cells: Wistar rat (male) caudal artery, spiral strip
T2 sequence (P14842 whole entry): as above
Protocol: (2) Inhibition Test against Serotonin-induced Constriction of Caudal Artery in Rats Wistar strain male rats (300-500 g) were sacrificed by striking the animals at the occiput. Caudal artery was removed and spiral strip was prepared according to the procedure of J. M. van Nueten, The Journal of Pharmacology and Experimental Therapeutics 218(1): 217-230 (1981).
The spirit strip was ligated at both ends with cotton thread and placed in a magunus tube containing 10 ml of Krebs-Henselite solution (37° C., bubbled with a mixture of 95% O2 and 5% CO2). One end of the thread was connected to Isometric Transducer (Nihon Koden-kogyo Kikai). Isometric contraction was measured using Isometric Amplifier (Nihon Koden-kogyo Kikai) under a tension of 0.5 g.
The control contruction by cumulatively added serotonin(final concentration: 10^-9 --10^-5 M) was measured and then the control ED50 value of serotonin was determined. Subsequently, the strip was washed three times with Krebs-Henselite solution and a compound of the invention was added at a suitable concentration (final concentration: 10^-8, 10^-7, 10^-6, or 10^-5 M). Two minutes later, serotonin was cumulatively added at concentrations from 10^-9 to 10^-5 or 10^-3 M, and the ED50 value in the test group was determined.
ED50 values were calculated by "Probit Analysis". In Probit Analysis, an intercept, slope and spontaneous (threshold) reaction ratio of the curve obtained by biological analysis can be calculated according to the following "Probit equation" with highest reliability: [formula] .PHI.: the cumulative distributing relationships of standard normal distribution. […]
x: average dose (concentration of serotonin) y: probability of reaction (contractility rate of vascular smooth muscle) a, b, c: parameter; a, b>0, 1>c>0.
Inhibition constant (Ki) for each compound was determined according to the following equation: [formula]

## CN(C)CCOc1ccccc1CCc1ccccc1 [Compound No. 1]
[1]
  pIC50: 7.02
[2]
  pKi: 8.20

## CN(C)CCCOc1ccccc1CCc1ccccc1 [Compound No. 2]
[1]
  pIC50: 7.47
[2]
  pKi: 8.34

## CN(C)CCCCOc1ccccc1CCc1ccccc1 [compound 3]
[1]
  pIC50: 6.94
[2]
  pKi: 8.01

## CN(C)CCCCCOc1ccccc1CCc1ccccc1 [compound 4]
[1]
  pIC50: 6.42
[2]
  pKi: 7.42

## CN(C)CCCCCCOc1ccccc1CCc1ccccc1 [compound 5]
[1]
  pIC50: 6.82
[2]
  pKi: 7.13

## CNCCCCOc1ccccc1CCc1ccccc1 [compound 6]
[1]
  pIC50: 6.81
[2]
  pKi: 7.15

## NCCCCOc1ccccc1CCc1ccccc1 [compound 7]
[2]
  pKi: 6.55

## c1ccc(CCc2ccccc2OCCCCN2CCCCC2)cc1 [compound 8]
[2]
  pKi: 7.17

## O=C(O)C1CCN(CCCCOc2ccccc2CCc2ccccc2)CC1 [compound 9]
[2]
  pKi: 6.70

## CN(C)CCCCOc1cccc(CCc2ccccc2)c1 [compound 10]
[2]
  pKi: 6.29

## CN(C)CCCCOc1ccc(CCc2ccccc2)cc1 [compound 11]
[2]
  pKi: 6.38

## COc1cccc(CCc2ccccc2OCCCCN(C)C)c1 [compound 12]
[2]
  pKi: 7.88

## CN(C)CCCOc1ccccc1CCc1ccc(N(C)C)cc1 [compound 13]
[2]
  pKi: 7.63

## COc1cccc(CCc2ccccc2OCC(CN(C)C)OC(=O)CCC(=O)O)c1 (stereo not drawn) [compound 14]
[2]
  pKi: 7.75

## COc1cccc(CCc2ccccc2OCC(O)CN(C)C)c1 (stereo not drawn) [compound 15]
[2]
  pKi: 8.94

## COc1cccc(CCc2ccccc2OCC(CN(C)C)OCCC(=O)O)c1 (stereo not drawn) [compound 16]
[2]
  pKi: 8.98

## CN(C)CC(COc1ccccc1CCc1cccc(F)c1)OC(=O)CCC(=O)O (stereo not drawn) [compound 17]
[2]
  pKi: 7.38

## CN(C)CC(O)COc1ccccc1CCc1ccccc1 (stereo not drawn) [compound 18]
[2]
  pKi: 7.86

## CN(C)CCCCOc1ccccc1CCc1cccc(Cl)c1 [compound 19]
[2]
  pKi: 7.87

## CN(C)CCCCOc1ccc(Cl)cc1CCc1ccccc1 [compound 20]
[2]
  pKi: 7.59

## COc1cccc(CCc2ccccc2)c1OCCCCN(C)C [compound 21]
[2]
  pKi: 7.07
